Assay results published in patent US20230398130A1, “METHODS AND COMPOSITIONS FOR DIFFERENTIATING STEM CELLS” (Massachusetts Institute of Technology, priority 2020, published 2023).

Assays:
ISC-enriched organoids [1] = assay: Primary screen, 384-well 2.5-D organoid differentiation (ENR+CD, 6 days): basal lysozyme secretion (LYZ.NS); assay type: cell-based, murine; conditions: for Dose.FC.LYZ.NS (log 2 fold change) / Dose.FC.LYZ.NS (log 2 fold change, basal lysozyme secretion): vs plate median
Excerpt: (§1) High-throughput screening.

ISC-enriched organoids [2] = assay: Primary screen, 384-well 2.5-D organoid differentiation (ENR+CD, 6 days): carbachol-induced lysozyme secretion (LYZ.S); assay type: cell-based, murine; conditions: vs plate median; for Dose.FC.LYZ.S (log 2 fold change): primary screen
Excerpt: as §1

ISC-enriched organoids [3] = assay: Primary screen, 384-well 2.5-D organoid differentiation (ENR+CD, 6 days, Target Selective Inhibitor Library, vs whole-plate median): ATP (CellTiter-Glo 3D, CTG); conditions: for Dose.FC.CTG (log 2 fold change) / Dose.FC.CTG (log 2 fold change, ATP): vs plate median

Compound | Z.LYZ.NS (standard z score) (ISC-enriched organoids [1]; Dose 0.08 uM, primary screen) | Dose.FC.LYZ.NS (log 2 fold change) (ISC-enriched organoids [1]; Dose 0.08 uM, primary screen) | Z.LYZ.NS (standard z score) (ISC-enriched organoids [1]; Dose 0.40 uM, primary screen) | Dose.FC.LYZ.NS (log 2 fold change) (ISC-enriched organoids [1]; Dose 0.40 uM, primary screen) | Z.LYZ.NS (standard z score) (ISC-enriched organoids [1]; Dose 2.00 uM, primary screen) | Dose.FC.LYZ.NS (log 2 fold change) (ISC-enriched organoids [1]; Dose 2.00 uM, primary screen) | Z.LYZ.NS (standard z score) (ISC-enriched organoids [1]; Dose 10.00 uM, primary screen) | Dose.FC.LYZ.NS (log 2 fold change) (ISC-enriched organoids [1]; Dose 10.00 uM, primary screen) | Dose.FC.LYZ.S (log 2 fold change) (ISC-enriched organoids [2]; Dose 0.08 uM) | Dose.FC.LYZ.S (log 2 fold change) (ISC-enriched organoids [2]; Dose 0.40 uM) | Dose.FC.LYZ.S (log 2 fold change) (ISC-enriched organoids [2]; Dose 2.00 uM) | Dose.FC.LYZ.S (log 2 fold change) (ISC-enriched organoids [2]; Dose 10.00 uM) | Z.CTG (standard z score) (ISC-enriched organoids [3]; Dose 0.08 uM, primary screen) | Dose.FC.CTG (log 2 fold change) (ISC-enriched organoids [3]; Dose 0.08 uM, primary screen) | Z.CTG (standard z score) (ISC-enriched organoids [3]; Dose 0.40 uM, primary screen) | Dose.FC.CTG (log 2 fold change) (ISC-enriched organoids [3]; Dose 0.40 uM, primary screen) | Z.CTG (standard z score) (ISC-enriched organoids [3]; Dose 2.00 uM, primary screen) | Dose.FC.CTG (log 2 fold change) (ISC-enriched organoids [3]; Dose 2.00 uM, primary screen) | Z.CTG (standard z score) (ISC-enriched organoids [3]; Dose 10.00 uM, primary screen) | Dose.FC.CTG (log 2 fold change) (ISC-enriched organoids [3]; Dose 10.00 uM, primary screen) | further results
O=C(Nc1ccncc1)c1cc([N+](=O)[O-])ccc1Cl [T0070907] | 0.084 | 0.010 | −0.029 | −0.003 | 0.373 | 0.043 | −1.897 | −0.218 | −0.005 | −0.001 | 0.081 | −0.312 | 0.267 | 0.112 | 0.062 | 0.026 | 0.119 | 0.050 | −1.806 | −0.756 | –
CNC(=O)c1ccccc1Nc1nc(Nc2ccc(N3CCOCC3)cc2OC)ncc1Cl [TAE226 (NVP-TAE226)] | −2.226 | −0.256 | −2.650 | −0.304 | −2.813 | −0.323 | −2.545 | −0.292 | −0.333 | −0.376 | −0.400 | −0.426 | −1.127 | −0.472 | −2.689 | −1.126 | −3.068 | −1.284 | −2.363 | −0.989 | –
CNC(=O)c1ccc2cc([C@@]3(O)CCn4cncc43)ccc2c1 [TAK-700 (Orteronel)] | 1.535 | 0.176 | 1.585 | 0.182 | 1.058 | 0.121 | −0.018 | −0.002 | 0.113 | 0.090 | 0.093 | 0.032 | −0.659 | −0.276 | −0.056 | −0.024 | −0.202 | −0.084 | 0.219 | 0.092 | –
O=C1CC(=O)c2c(Cl)c(Cl)c(Cl)c(Cl)c21 [TCID] | 0.431 | 0.049 | −0.155 | −0.018 | 0.578 | 0.066 | −0.159 | −0.018 | 0.062 | 0.017 | −0.066 | −0.054 | −0.325 | −0.136 | −0.017 | −0.007 | −0.517 | −0.217 | −0.545 | −0.228 | –
COc1ccc(C(=O)Nc2sc3c(c2C(N)=O)CCCC3)cc1OC [TCS 359] | 0.742 | 0.085 | 0.502 | 0.058 | 0.156 | 0.018 | −0.072 | −0.008 | 0.098 | 0.069 | −0.006 | 0.026 | 0.358 | 0.150 | 0.598 | 0.250 | 0.119 | 0.050 | −0.212 | −0.089 | –
Nc1nc(N)c2nc(-c3cccc(O)c3)c(-c3cccc(O)c3)nc2n1 [TG100-115] | – | – | – | – | – | – | – | – | – | – | – | – | – | – | – | – | – | – | – | – | Z.LYZ.NS (standard z score) (ISC-enriched organoids [1]; dose 0.08 uM): 1.812; Dose.FC.LYZ.NS (log 2 fold change, basal lysozyme secretion) (ISC-enriched organoids [1]; dose 0.08 uM): 0.208; Z.LYZ.NS (standard z score) (ISC-enriched organoids [1]; dose 0.40 uM): −0.223; Dose.FC.LYZ.NS (log 2 fold change, basal lysozyme secretion) (ISC-enriched organoids [1]; dose 0.40 uM): −0.026; Z.LYZ.NS (standard z score) (ISC-enriched organoids [1]; dose 2.00 uM): 0.025; Dose.FC.LYZ.NS (log 2 fold change, basal lysozyme secretion) (ISC-enriched organoids [1]; dose 2.00 uM): 0.003; Z.LYZ.NS (standard z score) (ISC-enriched organoids [1]; dose 10.00 uM): −0.223; Dose.FC.LYZ.NS (log 2 fold change, basal lysozyme secretion) (ISC-enriched organoids [1]; dose 10.00 uM): −0.026; Dose.FC.LYZ.S (log 2 fold change, carbachol-induced lysozyme secretion) (ISC-enriched organoids [2]; dose 0.08 uM): 0.073; Dose.FC.LYZ.S (log 2 fold change, carbachol-induced lysozyme secretion) (ISC-enriched organoids [2]; dose 0.40 uM): 0.032; Dose.FC.LYZ.S (log 2 fold change, carbachol-induced lysozyme secretion) (ISC-enriched organoids [2]; dose 2.00 uM): −0.019; Dose.FC.LYZ.S (log 2 fold change, carbachol-induced lysozyme secretion) (ISC-enriched organoids [2]; dose 10.00 uM): −0.100; Z.CTG (standard z score) (ISC-enriched organoids [3]; dose 0.08 uM): −0.611; Dose.FC.CTG (log 2 fold change, ATP) (ISC-enriched organoids [3]; dose 0.08 uM): −0.256; Z.CTG (standard z score) (ISC-enriched organoids [3]; dose 0.40 uM): 0.158; Dose.FC.CTG (log 2 fold change, ATP) (ISC-enriched organoids [3]; dose 0.40 uM): 0.066; Z.CTG (standard z score) (ISC-enriched organoids [3]; dose 2.00 uM): −0.031; Dose.FC.CTG (log 2 fold change, ATP) (ISC-enriched organoids [3]; dose 2.00 uM): −0.013; Z.CTG (standard z score) (ISC-enriched organoids [3]; dose 10.00 uM): −0.277; Dose.FC.CTG (log 2 fold change, ATP) (ISC-enriched organoids [3]; dose 10.00 uM): −0.116
NC(=O)Nc1sc(-c2ccc(F)cc2)cc1C(N)=O [TPCA-1] | – | – | – | – | – | – | – | – | – | – | – | – | – | – | – | – | – | – | – | – | Z.LYZ.NS (standard z score) (ISC-enriched organoids [1]; dose 0.08 uM): 0.627; Dose.FC.LYZ.NS (log 2 fold change, basal lysozyme secretion) (ISC-enriched organoids [1]; dose 0.08 uM): 0.072; Z.LYZ.NS (standard z score) (ISC-enriched organoids [1]; dose 0.40 uM): −0.413; Dose.FC.LYZ.NS (log 2 fold change, basal lysozyme secretion) (ISC-enriched organoids [1]; dose 0.40 uM): −0.047; Z.LYZ.NS (standard z score) (ISC-enriched organoids [1]; dose 2.00 uM): −0.514; Dose.FC.LYZ.NS (log 2 fold change, basal lysozyme secretion) (ISC-enriched organoids [1]; dose 2.00 uM): −0.059; Z.LYZ.NS (standard z score) (ISC-enriched organoids [1]; dose 10.00 uM): −1.711; Dose.FC.LYZ.NS (log 2 fold change, basal lysozyme secretion) (ISC-enriched organoids [1]; dose 10.00 uM): −0.197; Dose.FC.LYZ.S (log 2 fold change, carbachol-induced lysozyme secretion) (ISC-enriched organoids [2]; dose 0.08 uM): 0.041; Dose.FC.LYZ.S (log 2 fold change, carbachol-induced lysozyme secretion) (ISC-enriched organoids [2]; dose 0.40 uM): −0.029; Dose.FC.LYZ.S (log 2 fold change, carbachol-induced lysozyme secretion) (ISC-enriched organoids [2]; dose 2.00 uM): −0.054; Dose.FC.LYZ.S (log 2 fold change, carbachol-induced lysozyme secretion) (ISC-enriched organoids [2]; dose 10.00 uM): −0.294; Z.CTG (standard z score) (ISC-enriched organoids [3]; dose 0.08 uM): −0.146; Dose.FC.CTG (log 2 fold change, ATP) (ISC-enriched organoids [3]; dose 0.08 uM): −0.061; Z.CTG (standard z score) (ISC-enriched organoids [3]; dose 0.40 uM): −0.010; Dose.FC.CTG (log 2 fold change, ATP) (ISC-enriched organoids [3]; dose 0.40 uM): −0.004; Z.CTG (standard z score) (ISC-enriched organoids [3]; dose 2.00 uM): −0.012; Dose.FC.CTG (log 2 fold change, ATP) (ISC-enriched organoids [3]; dose 2.00 uM): −0.005; Z.CTG (standard z score) (ISC-enriched organoids [3]; dose 10.00 uM): −1.269; Dose.FC.CTG (log 2 fold change, ATP) (ISC-enriched organoids [3]; dose 10.00 uM): −0.531
Nc1cccc(-c2cc3c(Oc4cccc(O)c4)ncnc3[nH]2)c1 [TWS119] | – | – | – | – | – | – | – | – | – | – | – | – | – | – | – | – | – | – | – | – | Z.LYZ.NS (standard z score) (ISC-enriched organoids [1]; dose 0.08 uM): 0.820; Dose.FC.LYZ.NS (log 2 fold change, basal lysozyme secretion) (ISC-enriched organoids [1]; dose 0.08 uM): 0.094; Z.LYZ.NS (standard z score) (ISC-enriched organoids [1]; dose 0.40 uM): 0.327; Dose.FC.LYZ.NS (log 2 fold change, basal lysozyme secretion) (ISC-enriched organoids [1]; dose 0.40 uM): 0.038; Z.LYZ.NS (standard z score) (ISC-enriched organoids [1]; dose 2.00 uM): 0.304; Dose.FC.LYZ.NS (log 2 fold change, basal lysozyme secretion) (ISC-enriched organoids [1]; dose 2.00 uM): 0.035; Z.LYZ.NS (standard z score) (ISC-enriched organoids [1]; dose 10.00 uM): −2.027; Dose.FC.LYZ.NS (log 2 fold change, basal lysozyme secretion) (ISC-enriched organoids [1]; dose 10.00 uM): −0.233; Dose.FC.LYZ.S (log 2 fold change, carbachol-induced lysozyme secretion) (ISC-enriched organoids [2]; dose 0.08 uM): 0.207; Dose.FC.LYZ.S (log 2 fold change, carbachol-induced lysozyme secretion) (ISC-enriched organoids [2]; dose 0.40 uM): 0.142; Dose.FC.LYZ.S (log 2 fold change, carbachol-induced lysozyme secretion) (ISC-enriched organoids [2]; dose 2.00 uM): 0.044; Dose.FC.LYZ.S (log 2 fold change, carbachol-induced lysozyme secretion) (ISC-enriched organoids [2]; dose 10.00 uM): −0.283; Z.CTG (standard z score) (ISC-enriched organoids [3]; dose 0.08 uM): 0.784; Dose.FC.CTG (log 2 fold change, ATP) (ISC-enriched organoids [3]; dose 0.08 uM): 0.328; Z.CTG (standard z score) (ISC-enriched organoids [3]; dose 0.40 uM): 0.796; Dose.FC.CTG (log 2 fold change, ATP) (ISC-enriched organoids [3]; dose 0.40 uM): 0.333; Z.CTG (standard z score) (ISC-enriched organoids [3]; dose 2.00 uM): 0.169; Dose.FC.CTG (log 2 fold change, ATP) (ISC-enriched organoids [3]; dose 2.00 uM): 0.071; Z.CTG (standard z score) (ISC-enriched organoids [3]; dose 10.00 uM): −2.866; Dose.FC.CTG (log 2 fold change, ATP) (ISC-enriched organoids [3]; dose 10.00 uM): −1.200
